Test results from patent US12064516B2, “Pharmaceutical formulations and uses thereof” (Aldeyra Therapeutics, Inc., priority 2020, dated 2024).
Read-outs that look alike come from different tables or passages of the source.

Assay: Pharmacokinetics of compound I-1 in the dog by intravenous, oral gavage and oral capsule routes
Format: in vivo, beagle dogs
Settings: for concentration at 0.083 h / concentration at 0.25 h / concentration at 0.5 h / concentration at 1 h / concentration at 2 h / concentration at 4 h / concentration at 8 h / concentration at 12 h / AUC(0-inf) / AUC(0-t) / C0 / clearance / half-life / Vd: male, beagle, dog, plasma; for concentration at 0.083 h / concentration at 0.25 h / concentration at 0.5 h / concentration at 1 h / concentration at 2 h / concentration at 4 h / concentration at 8 h / concentration at 12 h: read-out: Concentration at time point; for Vd: read-out: Vss
Description: A pharmacokinetic study was conducted to compare the bioavailability of capsule and suspension oral formulations vs. an intravenous formulations.
The standard curve was prepared from 1 to 2,000 ng/mL. QC samples were prepared at […]. Dilution QCs were prepared at 10-fold dilution. Deuterated (d6) I-1 (compound 1-7) was used as an internal standard. A 50 μL aliquot of sample was added to 150 μL of cold internal standard in acetonitrile to effect protein precipitation. The resulting supernatants were analyzed by LCMS. Diluted sample data was utilized only for over-the-curve results.
Briefly, 9 male non-naïve beagle dogs were assigned in groups of 3 to 3 dose groups. Group 1 was dosed 3 mg/kg by the intravenous route in a vehicle of 20% sulfobutylether-β-cyclodextrin (SBECD). Group 2 was dosed 10 mg/kg by the oral gavage route in a vehicle of 0.5% methylcellulose (MC). Group 3 was dosed with 100 mg capsules.
The I-1 100 mg capsules are manufactured as a non-sterile spray dried, granulated powder blend. The blend is then filled into capsules for oral delivery. The capsules are packaged in high-density polyethylene bottles. The quantitative composition of the I-1 100 mg capsule is presented above in Table B.
Procedure: (PO) gavage: formulations will be administered via a rubber oral gavage tube followed by a 10 mL flush with drinking water. (PO) tablet: tablets will be administered orally by placing the tablet in the back of the throat followed by a 10 mL flush with water.
Frequency: Pre-dose, 5, 15, 30 min, 1, 2, 4, 8, and 12 hrs post-dose (IV); pre-dose, 15, 30 min, 1, 2, 4, 8, and 12 hrs post-dose (PO by gavage and PO by capsule).
Blood collection: each blood sample will be collected from the dog's jugular vein or other accessible vein via direct venepuncture, placed into a pre-labeled tube containing K2EDTA and kept on ice until centrifugation.
Plasma preparation and storage: Certifuged at 4 C at 3,000× for 5 mm. Stored in a freezer until analysed.
Pharmacokinetics package PKSolver2.0™ has been validated against WinNonLin™ as a tool for non-GLP studies and was used to process the pharmacokinetic data.
For each route, the average data were processed with non-compartmental, one compartment, and two compartment models. The models were assessed for goodness of fit and the accuracy of the model to assess the biphasic data, with either a) no weighting, b) 1/concentration observed, or c) 1/concentration observed squared. 1/concentration predicted, and 1/concentration predicted squared weightings were also assessed for best fit. […] The zeros were averaged with the 71.5 value for a resulting average of 23.8. For the In Group 2 (PO Gavage) subject 3 experienced 30 mL of emesis, so the dose assigned to that subject was 7.46. In all cases, the subjects were modelled individually, and the individual PK parameters were averaged to provide final parameters.
For group 1 (intravenous) the final model selected was a two compartment model with 1/concentration observed squared weighting.
For group 2 (oral gavage) the final model was a two compartment extravascular model with 1/concentration predicted squared weighting.
For group 3 (oral capsule) the final model was a one compartment extravascular model with a lag time and no weighting. […] The body weight of each animal was used to assign a mg/kg dose to each individual. Subject 1 was dosed at 7.69 mg/kg. Subject 2 was 6.94 mg/kg, and Subject 3 was 6.99 mg/kg.

[1] = iv, 3 mg/kg, Group 1: IV 3 mg/kg, Average
[2] = iv, 3 mg/kg, Group 1: IV 3 mg/kg, Subject 1
[3] = iv, 3 mg/kg, Group 1: IV 3 mg/kg, Subject 2
[4] = iv, 3 mg/kg, Group 1: IV 3 mg/kg, Subject 3
[5] = iv, 3 mg/kg, Intravenous - 3 mg/kg, Average
[6] = iv, 3 mg/kg, Intravenous - 3 mg/kg, Subj1
[7] = iv, 3 mg/kg, Intravenous - 3 mg/kg, Subj2
[8] = iv, 3 mg/kg, Intravenous - 3 mg/kg, Subj3
[9] = oral, 7 mg/kg, Group 3: PO Capsule 7 mg/kg, Subject 1
[10] = oral, 7 mg/kg, Group 3: PO Capsule 7 mg/kg, Subject 3
[11] = oral, 7 mg/kg, Group 3: PO Capsule 7 mg/kg, Average
[12] = oral, 7 mg/kg, Group 3: PO Capsule 7 mg/kg, Subject 2

CC(C)(O)c1nc2ccccc2cc1N [I-1]
AUC/Dose (100 mg Capsule, average dose 7.2 mg/kg, Average): 1139 ng·h/mL/mg/kg | AUC/Dose (100 mg Capsule, average dose 7.2 mg/kg, Subj1): 955 ng·h/mL/mg/kg | AUC/Dose (100 mg Capsule, average dose 7.2 mg/kg, Subj2): 809 ng·h/mL/mg/kg | AUC/Dose (100 mg Capsule, average dose 7.2 mg/kg, Subj3): 1653 ng·h/mL/mg/kg | AUC/Dose (Intravenous - 3 mg/kg, Average): 1379 | AUC/Dose (Intravenous - 3 mg/kg, Subj1): 1361 | AUC/Dose (Intravenous - 3 mg/kg, Subj2): 1520 | AUC/Dose (Intravenous - 3 mg/kg, Subj3): 1256 | AUC/Dose (Oral Gavage 0.5% Methylcellulose 10 mg/kg, Average): 1038 ng·h/mL/mg/kg | AUC/Dose (Oral Gavage 0.5% Methylcellulose 10 mg/kg, Subj1): 1121 ng·h/mL/mg/kg | AUC/Dose (Oral Gavage 0.5% Methylcellulose 10 mg/kg, Subj2): 1010 ng·h/mL/mg/kg | AUC/Dose (Oral Gavage 0.5% Methylcellulose 10 mg/kg, Subj3 (dose assigned 7.46 after emesis)): 982 ng·h/mL/mg/kg | concentration at 0.083 h [1]: 5080 ng/mL | concentration at 0.083 h [2]: 4910 ng/mL | concentration at 0.083 h [3]: 4900 ng/mL | concentration at 0.083 h [4]: 5430 ng/mL | concentration at 0.25 h [1]: 2410 ng/mL | concentration at 0.25 h [2]: 2780 ng/mL | concentration at 0.25 h [3]: 2300 ng/mL | concentration at 0.25 h [4]: 2150 ng/mL | concentration at 0.5 h [1]: 1660 ng/mL | concentration at 0.5 h [2]: 1720 ng/mL | concentration at 0.5 h [3]: 1700 ng/mL | concentration at 0.5 h [4]: 1570 ng/mL | concentration at 1 h [1]: 951 ng/mL | concentration at 1 h [2]: 857 ng/mL | concentration at 1 h [3]: 908 ng/mL | concentration at 1 h [4]: 1090 ng/mL | concentration at 2 h [1]: 548 ng/mL | concentration at 2 h [2]: 436 ng/mL | concentration at 2 h [3]: 766 ng/mL | concentration at 2 h [4]: 443 ng/mL | concentration at 4 h [1]: 250 ng/mL | concentration at 4 h [2]: 259 ng/mL | concentration at 4 h [3]: 287 ng/mL | concentration at 4 h [4]: 203 ng/mL | concentration at 8 h [1]: 42.5 ng/mL | concentration at 8 h [2]: 49 ng/mL | concentration at 8 h [3]: 55.4 ng/mL | concentration at 8 h [4]: 23.1 ng/mL | concentration at 12 h [1]: 15.5 ng/mL | concentration at 12 h [2]: 23.9 ng/mL | concentration at 12 h [3]: 17 ng/mL | concentration at 12 h [4]: 5.5 ng/mL | AUC(0-inf) [5]: 4140 ng·h/mL | AUC(0-t) [5]: 4100 ng·h/mL | C0 [5]: 6720 ng/mL | clearance [5]: 12.2 mL/min/kg | half-life [5]: 1.82 h | Vd [5]: 1.39 L/kg | AUC(0-inf) [6]: 4080 ng·h/mL | AUC(0-t) [6]: 4030 ng·h/mL | C0 [6]: 5600 ng/mL | clearance [6]: 12.2 mL/min/kg | half-life [6]: 2.2 h | Vd [6]: 1.51 L/kg | AUC(0-inf) [7]: 4560 ng·h/mL | AUC(0-t) [7]: 4520 ng·h/mL | C0 [7]: 6670 ng/mL | clearance [7]: 11 mL/min/kg | half-life [7]: 1.82 h | Vd [7]: 1.4 L/kg | AUC(0-inf) [8]: 3770 ng·h/mL | AUC(0-t) [8]: 3760 ng·h/mL | C0 [8]: 7890 ng/mL | clearance [8]: 13.3 mL/min/kg | half-life [8]: 1.44 h | Vd [8]: 1.25 L/kg | concentration at 0.25 h [9]: 0 ng/mL | concentration at 0.25 h [10]: 0 ng/mL | concentration at 0.5 h [11]: 97.4 ng/mL | concentration at 0.5 h [9]: 1.1 ng/mL | concentration at 0.5 h [12]: 290 ng/mL | concentration at 0.5 h [10]: 1 ng/mL | concentration at 1 h [11]: 137 ng/mL | concentration at 1 h [9]: 24 ng/mL | concentration at 1 h [12]: 254 ng/mL | concentration at 1 h [10]: 134 ng/mL | concentration at 2 h [11]: 2350 ng/mL | concentration at 2 h [9]: 1740 ng/mL | concentration at 2 h [12]: 1320 ng/mL | concentration at 2 h [10]: 3990 ng/mL | concentration at 4 h [11]: 985 ng/mL
